Measurements: US11419902B2, “Compositions comprising bacterial strains” (4D Pharma Research Limited, priority 2018, dated 2022)

How the values were obtained:
[1] = test system: 451Lu melanoma cell line; assay: Soft agar growth of 451Lu cell line; type: cell-based; conditions: added to MRx0029
Experimental: (§1) A mixture of 25 μL prewarmed (37° C.) 2× appropriate growth medium (EMEM for melanoma cell lines; DMEM high glucose for HT29) containing 20% FBS, 4 mM L-Glu, 2×NEAA, 0.6% sodium bicarbonate, 200 U/mL penicillin/streptomycin (Invitrogen), and 25 μL prewarmed (47° C.) 1.2% Noble Agar (A5431; Sigma Aldrich) were plated onto each well of a 96-well microplate to serve as a prelayer for the assay. Ten microliters of cell suspensions containing 0-2×10^3 cells were mixed with 25 μL 2× growth media and 35 μL 0.8% Noble Agar in a 96-well round-bottom polypropylene microplate and transferred to the 96-well microplate containing the solidified prelayers. […] They left to grow in the humidified 37° C. incubator with 5% CO2 for 1-2 weeks before soft agar growth was scored using the CytoSelect 96 well cell transformation assay (CBA-130; Cell Biolabs) according to the manufacturer's protocol. Cell growth was measured using a Tecan Infinite F200 Pro Series Multi-Well Plate Reader (Tecan Biosystems), with excitation at 485 nm and emission at 530 nm. […]
The effects of the following treatments were assessed on the 451Lu melanoma cell line (V600E oncogenic mutation in BRAF): (1) MRx0029; (2) Vemurafenib (VEMU) in YFCA+ medium; (3) VEMU and MRx0029; (4) Azacytidine-C (Aza-c) in YFCA+ medium; (5) Aza-c and MRx0029; (6) VEMU, Aza-c and MRx0029.

[2] = test system: HT29 colorectal cancer cell line; assay: Clonogenic survival of HT29 cell line; type: cell-based; conditions: HT29, added to MRx0029
Experimental: (§2) Cells were trypsinized and 200 cells/well were seeded in 12-well plates. After 48 h cells were treated with the appropriate drugs in absence (YCFA+) or presence of 10% bacterial supernatant and were re-fed every three days. On day 21 after seeding, cells were fixed in ice-cold methanol and stained with Crystal Violet blue. […] were counted and survival fraction was calculated as number of colonies divided by the number of plated cells (plating efficiency) of treated divided by the plating efficiency of control.
The effects of the following treatments were assessed on the HT29 colorectal cancer cell line (V600E oncogenic mutation in BRAF): (1) MRx0029; (2) Vemurafenib (VEMU) in YFCA+ medium; (3) VEMU and MRx0029; (4) Azacytidine-C (Aza-c) in YCFA+ medium; (5) Aza-c and MRx0029; (6) VEMU, Aza-c and MRx0029.

[3] = test system: SKMEL31 melanoma cell line; assay: Clonogenic survival of SKMEL31 cell line; type: cell-based; conditions: SKMEL31, added to MRx0029
Experimental: as §2
(§3) The effects of the following treatments were assessed on the SKMEL31 melanoma cell line (heterozygous for BRAF V600E): (1) MRx0029; (2) Vemurafenib (VEMU) in YFCA+ medium; (3) VEMU and MRx0029; (4) Azacytidine-C (Aza-c) in YFCA+ medium; (5) Aza-c and MRx0029; (6) VEMU, Aza-c and MRx0029.

[4] = test system: SKMEL31 melanoma cell line; assay: Soft agar growth of SKMEL31 cell line; type: cell-based; conditions: SKMEL31, added to MRx0029
Experimental: as §1, §3

[5] = test system: IL-8; assay: IL-8 secretion by differentiated HT29-mtx cells; type: cell-based; conditions: 24 h, vs untreated and YCFA+-treated cells
Source text: The ability of MRx0029 to cause any intestinal barrier dysfunction was investigated. HT29-mtx epithelial, mucin-producing cell monolayers were used as an in vitro model to evaluate gut barrier disruption and immune stimulation following treatment with MRx0029.

[6] = test system: IL-8; assay: IL-8 secretion in U373 cells treated with SCFAs or supernatant fractions (ELISA); type: cell-based, Human; conditions: U373 cells pre-treated 1 h with 1 μg/ml LPS, increasing concentrations
Experimental: Human glioblastoma astrocytoma cell line (U373), were maintained in 25 ml MEME 4.5 g/L D-glucose supplemented with 10% heat-inactivated FBS, 4 mM L-Glutamine, 100 U/ml penicillin, 100 μg/ml streptomycin and 5 μg/ml plasmocin, 1% Non-Essential Amino Acids, 1% Sodium Pyruvate (referred to as full growth media).
U373 cells were prepared as described above. Cells were pre-treated for 1 h with 1 μg/ml LPS indicated above and incubated at 37° C. and 5% CO2. After 1 h pre-incubation, cells were removed from CO2 incubator and treated with increasing concentration of fresh prepared Sodium Butyrate (SB), Sodium Valerate (SV) and Hexanoic Acid (HA).
U373 cells were prepared as described above. Cells were pre-treated for 1 h with 1 μg/ml LPS as indicated above. Afterwards, cells were removed from CO2 incubator and treated with 100 μl of the different fractions. Fractions from media were used as controls. Cell-free supernatants were collected 24 h after treatment and analysed by ELISA for IL-8 secretion (as outlined above).

[7] = test system: HDAC; assay: HDAC inhibition on whole HT-29 cells; type: cell-based
Experimental: (§4) Pure cultures of bacteria were grown anaerobically in YCFA+ broth until they reached their stationary growth phase. Cultures were centrifuged at 5,000×g for 5 minutes and the cell-free supernatant (CFS) was filtered using a […] (Millipore, UK). 1 mL aliquots of the CFS were stored at −80° C. until use. Sodium butyrate, hexanoic and valeric acid were obtained from Sigma Aldrich (UK) and suspensions were prepared in YCFA+ broth.
(§5) To investigate which metabolites were responsible for the strain-induced HDAC inhibition, different concentrations of hexanoic acid, valeric acid and sodium butyrate were measured for their HDAC inhibition on whole HT-29 cells and on HT-29 cell lysate.

[8] = test system: HDAC; assay: HDAC inhibition on HT-29 cell lysate; type: biochemical
Experimental: as §4, §5

Compound	LPS-induced secretion of IL-8 [6]	HDAC inhibition on whole HT-29 cells [7]	HDAC inhibition on HT-29 cell lysate [8]	further results
Nc1ncn([C@@H]2O[C@H](CO)[C@@H](O)[C@H]2O)c(=O)n1 [Aza-c, Azacytidine-C]				effect on soft agar growth inhibition by MRx0029 [1]: enhanced soft agar growth inhibition by MRx0029; effect on inhibition of clonogenic survival by MRx0029 [2]: improved the effects of MRx0029 in inhibiting clonogenic survival; effect on clonogenic survival inhibition by MRx0029 [3]: improved; effect on soft agar growth inhibition by MRx0029 [4]: improved
CCCCCCCCCCCCCC(=O)O[C@@H]1[C@@H](C)[C@@]2(O)[C@@H](C=C(CO)C[C@]3(O)C(=O)C(C)=C[C@@H]23)[C@@H]2C(C)(C)[C@]12OC(C)=O [PMA, phorbol 12-myristate-13-acetate, reference compound]				secretion of IL-8 [5]: secreted a significant amount of IL-8
CCCCC(=O)[O-].[Na+] [SV, sodium valerate]	increased LPS-induced secretion of IL-8			
CCCCCC(=O)O [hexanoic acid]	did not inhibit IL-8 secretion	did not show significant inhibitory activity	did not show significant inhibitory activity	
CCCC(=O)[O-].[Na+] [sodium butyrate]	increased LPS-induced secretion of IL-8	significant (P<0.05) inhibition of HDAC activity	significant (P<0.05) inhibition of HDAC activity	
CCCCC(=O)O [valeric acid]		inhibited HDAC activity	inhibited HDAC activity	
